In ChEMBL document CHEMBL1138648, “Synthesis of new N-(2-(trifluoromethyl)pyridin-4-yl)anthranilic acid derivatives and their evaluation as anticancer agents” (2004):

Key:
Assay type in all cases: functional
SF-268 [1] = assay: In vitro percent of proliferation of vehicle treated SF-268 human CNS cell lines was determined at 0.0010 M concentration
MCF7 [2] = assay: In vitro percent of proliferation of vehicle treated MCF-7 human breast cell lines was determined at 0.0010 M concentration
NCI-H460 [3] = assay: In vitro percent of proliferation of vehicle treated NCI-H460 human lung cell lines was determined at 0.0010 M concentration
NCI-H522 = assay: Growth inhibitory activity against non small cell lung cancer H522 cell line was determined; settings: Homo sapiens
EKVX = assay: Growth inhibitory activity against non small cell lung cancer EKVX cell line was determined; settings: Homo sapiens
786-0 = assay: Growth inhibitory activity against Renal cancer 786-0 cell line was determined; settings: Homo sapiens
HCT-15 = assay: Growth inhibitory activity against colon cancer HCT-15 cell line was determined; settings: Homo sapiens
U-251 = assay: Growth inhibitory activity against CNS cancer U251 cell line was determined; settings: Homo sapiens
HOP-62 = assay: Growth inhibitory activity against non small cell lung cancer HOP-62 cell line was determined; settings: Homo sapiens
NCI-H460 [4] = assay: Growth inhibitory activity against non small cell lung cancer H460 cell line was determined; settings: Homo sapiens
BT-549 = assay: Growth inhibitory activity against Breast cancer BT-549 cell line was determined; settings: Homo sapiens
SK-MEL-28 = assay: Growth inhibitory activity against Melanoma SK-MEL-28 cell line was determined; settings: Homo sapiens
SNB-19 = assay: Growth inhibitory activity against CNS cancer SNB-19 cell line was determined; settings: Homo sapiens
MDA-MB-231 = assay: Growth inhibitory activity against Breast cancer MDA-MB-231/ATCC cell line was determined; settings: Homo sapiens
HCT-116 = assay: Growth inhibitory activity against colon cancer HCT116 cell line was determined; settings: Homo sapiens
UACC-257 = assay: Growth inhibitory activity against Melanoma UACC-257 cell line was determined; settings: Homo sapiens
UACC-62 = assay: Growth inhibitory activity against Melanoma UACC-62 cell line was determined; settings: Homo sapiens
PC-3 = assay: Growth inhibitory activity against Prostate cancer PC-3 cell line was determined; settings: Homo sapiens
HOP-92 = assay: Growth inhibitory activity against non small cell lung cancer HOP-92 cell line was determined; settings: Homo sapiens
HL-60 = assay: Growth inhibitory activity against Leukemia HL-60(TB) cell line was determined; settings: Homo sapiens
M14 = assay: Growth inhibitory activity against Melanoma M14 cell line was determined; settings: Homo sapiens
OVCAR-3 = assay: Growth inhibitory activity against Ovarian cancer OVCAR-3 cell line was determined; settings: Homo sapiens
SW-620 = assay: Growth inhibitory activity against colon cancer SW-620 cell line was determined; settings: Homo sapiens
A549 = assay: Growth inhibitory activity against non small cell lung cancer A549/ATCC cells; settings: Homo sapiens
COLO 205 = assay: Growth inhibitory activity against colon cancer COLO 205 cell line was determined; settings: Homo sapiens
MOLT-4 = assay: Growth inhibitory activity against Leukemia MOLT-4 cell line was determined; settings: Homo sapiens
LOX IMVI = assay: Growth inhibitory activity against Melanoma LOX IMVI cell line; settings: Homo sapiens
RXF 393 = assay: Growth inhibitory activity against Renal cancer RXF 393 cell line was determined; settings: Homo sapiens
ACHN = assay: Growth inhibitory activity against Renal cancer ACHN cell line was determined; settings: Homo sapiens
OVCAR-5 = assay: Growth inhibitory activity against Ovarian cancer OVCAR-5 cell line was determined; settings: Homo sapiens
MCF7 [5] = assay: Growth inhibitory activity against Breast cancer MCF-7 cell line was determined; settings: Homo sapiens
NCI-H322M = assay: Growth inhibitory activity against non small cell lung cancer NCI-H322M cell line was determined; settings: Homo sapiens
CAKI-1 = assay: Growth inhibitory activity against Renal cancer CAKI-1 cell line was determined; settings: Homo sapiens
SN12C = assay: Growth inhibitory activity against Renal cancer SN12C cell line was determined; settings: Homo sapiens
SK-MEL-5 = assay: Growth inhibitory activity against Melanoma SK-MEL-5 cell line was determined; settings: Homo sapiens
TK-10 = assay: Growth inhibitory activity against Renal cancer TK-10 cell line was determined; settings: Homo sapiens
Hs-578T = assay: Growth inhibitory activity against Breast cancer HS 578T cell line was determined; settings: Homo sapiens
SF-295 = assay: Growth inhibitory activity against CNS cancer SF-295 cell line was determined; settings: Homo sapiens
MDA-MB-435 = assay: Growth inhibitory activity against Breast cancer MDA-MB-435 cell line was determined; settings: Homo sapiens
SF-268 [6] = assay: Growth inhibitory activity against CNS cancer SF-268 cell line was determined; settings: Homo sapiens
OVCAR-8 = assay: Growth inhibitory activity against Ovarian cancer OVCAR-8 cell line was determined; settings: Homo sapiens
NCI-H23 = assay: Growth inhibitory activity against non small cell lung cancer NCI-H23 cell line was determined; settings: Homo sapiens
K562 = assay: Growth inhibitory activity against Leukemia K-562 cell line was determined; settings: Homo sapiens
KM12 = assay: Growth inhibitory activity against colon cancer KM12 cell line was determined; settings: Homo sapiens
RPMI-8226 = assay: Growth inhibitory activity against Leukemia RPMI-8226 cell line was determined; settings: Homo sapiens
HT-29 = assay: Growth inhibitory activity against colon cancer HT-29 cell line was determined; settings: Homo sapiens
NCI-H226 = assay: Growth inhibitory activity against non small cell lung cancer NCI-H226 cell line was determined; settings: Homo sapiens

Q: Which Proliferation (SF-268 [1]) does the source give for `O=C(Nc1cccnc1)c1ccccc1Nc1ccnc(C(F)(F)F)c1` here?
A: 98%

Q: And the Proliferation (MCF7 [2])?
A: 56%

Q: And the Proliferation (NCI-H460 [3])?
A: 62%

Q: For `O=C(Nc1ccncc1)c1ccccc1Nc1ccnc(C(F)(F)F)c1`, which Proliferation (SF-268 [1]) is on record?
A: 96%

Q: And the Proliferation (MCF7 [2])?
A: 79%

Q: And the Proliferation (NCI-H460 [3])?
A: 99%

Q: Which results are given for `COC(=O)c1ccccc1Nc1ccnc(C(F)(F)F)c1`?
A: Proliferation (SF-268 [1]): 103%; Proliferation (MCF7 [2]): 96%; Proliferation (NCI-H460 [3]): 100%

Q: What does the source list for `O=C(Nc1ccccn1)c1ccccc1Nc1ccnc(C(F)(F)F)c1`?
A: Proliferation (SF-268 [1]): 94%; Proliferation (MCF7 [2]): 66%; Proliferation (NCI-H460 [3]): 86%

Q: How did the Proliferation (SF-268 [1]) turn out when `CCOC(=O)c1ccccc1Nc1ccnc(C(F)(F)F)c1` was run?
A: 103%

Q: What about the Proliferation (MCF7 [2]) of the same compound?
A: 98%

Q: And the Proliferation (NCI-H460 [3])?
A: 102%

Q: What does the source list for `COc1cccc(OC(=O)c2ccccc2Nc2ccnc(C(F)(F)F)c2)c1`?
A: GI50 (NCI-H522): 7.6 µM; GI50 (EKVX): 6.6 µM; GI50 (786-0): 3.4 µM; GI50 (HCT-15): 2.8 µM; GI50 (U-251): 2.9 µM; GI50 (HOP-62): 2.8 µM; GI50 (NCI-H460 [4]): 4.1 µM; GI50 (BT-549): 8.1 µM; GI50 (SK-MEL-28): 12 µM; GI50 (SNB-19): 3.5 µM; GI50 (MDA-MB-231): 2.1 µM; GI50 (HCT-116): 1.1 µM; GI50 (UACC-257): 5.4 µM; GI50 (UACC-62): 3.1 µM; GI50 (PC-3): 3.2 µM; GI50 (HOP-92): 5.7 µM; GI50 (HL-60): 2.1 µM; Proliferation (SF-268 [1]): 43%; GI50 (M14): 1.3 µM; GI50 (OVCAR-3): 1.6 µM; GI50 (SW-620): 4.4 µM; GI50 (A549): 3.2 µM; GI50 (COLO 205): 2.2 µM; GI50 (MOLT-4): 0.69 µM; GI50 (LOX IMVI): 1.1 µM; GI50 (RXF 393): 21 µM; GI50 (ACHN): 3.4 µM; Proliferation (MCF7 [2]): 42%; GI50 (OVCAR-5): 3.5 µM; GI50 (MCF7 [5]): 7.6 µM; GI50 (NCI-H322M): 7.4 µM; GI50 (CAKI-1): 2.7 µM; GI50 (SN12C): 5.4 µM; GI50 (SK-MEL-5): 2.2 µM; GI50 (TK-10): 11 µM; GI50 (Hs-578T): 4.9 µM; GI50 (SF-295): 2.5 µM; GI50 (MDA-MB-435): 1 µM; GI50 (SF-268 [6]): 4.7 µM; GI50 (OVCAR-8): 3.6 µM; GI50 (NCI-H23): 2 µM; Proliferation (NCI-H460 [3]): 13%; GI50 (K562): 0.74 µM; GI50 (KM12): 2.6 µM; GI50 (RPMI-8226): 1 µM; GI50 (HT-29): 3.7 µM; GI50 (NCI-H226): 8.1 µM

Q: How did the Proliferation (SF-268 [1]) turn out when `CSc1ccc(OC(=O)c2ccccc2Nc2ccnc(C(F)(F)F)c2)cc1` was run?
A: 81%

Q: And the Proliferation (MCF7 [2])?
A: 80%

Q: And the Proliferation (NCI-H460 [3])?
A: 68%
